Laboratory results as given in patent US8901118B2, “Compounds and methods for kinase modulation, and indications therefor” (Plexxikon Inc., priority 2010, dated 2014).

Tests used:
[1] = target: TrkA kinase (Homo sapiens, UniProt P04629); assay: TrkA kinase biochemical activity assay (AlphaScreen); conditions: 100 μM ATP; read-out: Biochemical Inhibition IC50 TrkA
Procedure: In one assay the biochemical activity IC50 values are determined with respect to inhibition of TrkA kinase activity, where inhibition of phosphorylation of a peptide substrate is measured as a function of compound concentration. Compounds to be tested, dissolved in DMSO (1 μL), are added to a white 384-well plate (Costar #3705). Working stocks of TrkA kinase (UBI), biotin-(E4Y)10 substrate (Upstate Biotech, Cat#12-440), and ATP (Sigma, Cat#A-3377) are prepared in 25 mM Hepes pH 7.5, 10 mM MnCl2, 1 mM DTT, 0.01% BSA, and 0.01% Tween-20. All components are added to the 384-well plate for a final concentration of 1 ng/well TrkA, 30 nM biotin-(E4Y)10 and 100 μM ATP in a volume of 20 μL. Each sample is at 5% DMSO. The plate is shaken for 1 minute at 1200 rpm, spun for 1 minute at 1000 rpm, then incubated for 40 minutes at room temperature. Just before use, working stocks of donor and acceptor beads from the AlphaScreen PY20 Detection Kit (PerkinElmer, Cat#676601M) are prepared in 25 mM Hepes pH 7.5, 100 mM EDTA. 0.01% BSA. Donor Beads solution (Streptavidin beads) is added (5 μL) to each well to final bead concentration of 10 μg/mL. The plate is incubated at room temperature for 20 minutes. Acceptor Beads solution (PY20 coated beads) are then added to each well (5 μL) to a final concentration of bead at 10 μg/mL. The plates are incubated at room temperature for 60 minutes. Fluorescence signal is recorded on the Envision reader. Phosphorylated substrate results in binding of the PY20 antibody and association of the donor and acceptor beads such that signal correlates with kinase activity. The signal vs. compound concentration is used to determine the IC50. Similar assays are used for TrkB and Trk C kinase.

[2] = target: c-Kit kinase (Homo sapiens, UniProt P10721); assay: c-Kit kinase biochemical activity assay (AlphaScreen, biotin-(E4Y)10 phosphorylation); conditions: 100 μM ATP; read-out: Biochemical Inhibition IC50 Kit
Procedure: Assays for biochemical and cell based activity are known in the art, for example, U.S. Patent Application Publication Number 2009/0076046, the disclosure of which is hereby incorporated by reference as it relates to such assays. For example, in one assay the biochemical activity IC50 values are determined with respect to inhibition of c-Kit kinase activity, where inhibition of phosphorylation of a peptide substrate is measured as a function of compound concentration. Compounds to be tested are dissolved in DMSO to a concentration of 20 mM. These are diluted 30 μL into 120 μL of DMSO (4 mM) and 1 μL is added to an assay plate. These are then serially diluted […] (50 μL to 100 μL DMSO) for a total of 8 points. Plates are prepared such that each kinase reaction is 20 μL in 1× kinase buffer (25 mM HEPES, pH 7.5, 2 mM MgCl2, 2 mM MnCl2, 0.01% Tween-20, 1 mM DTT, 0.01% BSA), 5% DMSO and 100 μM ATP. Substrate is 30 nM biotin-(E4Y) 10 (Millipore). C-kit kinase (obtained from Millipore (#14-559) or is prepared as described in U.S. Patent Application Publication Number 2009/0076046, the disclosure of which is hereby incorporated by reference as it relates to this assay) is at 0.75 ng per sample. After incubation of the kinase reaction for 1 hour at room temperature, 5 μL of donor beads (Streptavidin coated beads (Perkin Elmer Life Science) final concentration 10 μg/mL) in stop buffer (25 mM Hepes pH 7.5, 100 mM EDTA, 0.01% BSA) is added, the sample is mixed and incubated for 20 minutes at room temperature before adding 5 μL of acceptor beads (PY20 coated beads (Perkin Elmer Life Science) final concentration 10 μg/mL) in stop buffer. The samples are incubated for 60 minutes at room temperature and the signal per well is read on Envision reader. Phosphorylated substrate results in binding of the PY20 antibody and association of the donor and acceptor beads such that signal correlates with kinase activity. The signal vs. compound concentration is used to determine the IC50.

c-Kit kinase, sequence (P10721 26-976): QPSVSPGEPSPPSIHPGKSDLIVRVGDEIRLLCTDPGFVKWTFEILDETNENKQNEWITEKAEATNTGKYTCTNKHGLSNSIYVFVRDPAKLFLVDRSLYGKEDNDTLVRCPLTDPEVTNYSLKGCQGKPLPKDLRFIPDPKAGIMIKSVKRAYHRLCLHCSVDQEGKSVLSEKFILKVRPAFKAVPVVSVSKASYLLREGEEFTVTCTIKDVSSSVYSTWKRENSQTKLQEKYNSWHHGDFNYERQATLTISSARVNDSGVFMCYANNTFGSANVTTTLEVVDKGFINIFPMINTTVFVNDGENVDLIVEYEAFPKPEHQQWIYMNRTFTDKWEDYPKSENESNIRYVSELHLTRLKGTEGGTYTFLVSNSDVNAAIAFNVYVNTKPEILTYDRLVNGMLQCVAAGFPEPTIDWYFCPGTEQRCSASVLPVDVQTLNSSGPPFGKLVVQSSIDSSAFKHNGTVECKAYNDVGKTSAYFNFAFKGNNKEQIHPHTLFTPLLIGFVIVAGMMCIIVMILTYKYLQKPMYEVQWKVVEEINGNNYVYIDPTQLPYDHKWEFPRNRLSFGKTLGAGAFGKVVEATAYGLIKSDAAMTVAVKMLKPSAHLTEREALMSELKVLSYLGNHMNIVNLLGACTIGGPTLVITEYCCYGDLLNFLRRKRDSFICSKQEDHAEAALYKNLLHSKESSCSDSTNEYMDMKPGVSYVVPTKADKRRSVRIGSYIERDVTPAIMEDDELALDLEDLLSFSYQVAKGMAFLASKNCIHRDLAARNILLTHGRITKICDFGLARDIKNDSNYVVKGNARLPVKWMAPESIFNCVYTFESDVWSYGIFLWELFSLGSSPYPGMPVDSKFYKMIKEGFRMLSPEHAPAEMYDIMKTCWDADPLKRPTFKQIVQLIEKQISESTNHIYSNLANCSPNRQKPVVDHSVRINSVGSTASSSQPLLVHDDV
TrkA kinase, sequence (P04629 33-796): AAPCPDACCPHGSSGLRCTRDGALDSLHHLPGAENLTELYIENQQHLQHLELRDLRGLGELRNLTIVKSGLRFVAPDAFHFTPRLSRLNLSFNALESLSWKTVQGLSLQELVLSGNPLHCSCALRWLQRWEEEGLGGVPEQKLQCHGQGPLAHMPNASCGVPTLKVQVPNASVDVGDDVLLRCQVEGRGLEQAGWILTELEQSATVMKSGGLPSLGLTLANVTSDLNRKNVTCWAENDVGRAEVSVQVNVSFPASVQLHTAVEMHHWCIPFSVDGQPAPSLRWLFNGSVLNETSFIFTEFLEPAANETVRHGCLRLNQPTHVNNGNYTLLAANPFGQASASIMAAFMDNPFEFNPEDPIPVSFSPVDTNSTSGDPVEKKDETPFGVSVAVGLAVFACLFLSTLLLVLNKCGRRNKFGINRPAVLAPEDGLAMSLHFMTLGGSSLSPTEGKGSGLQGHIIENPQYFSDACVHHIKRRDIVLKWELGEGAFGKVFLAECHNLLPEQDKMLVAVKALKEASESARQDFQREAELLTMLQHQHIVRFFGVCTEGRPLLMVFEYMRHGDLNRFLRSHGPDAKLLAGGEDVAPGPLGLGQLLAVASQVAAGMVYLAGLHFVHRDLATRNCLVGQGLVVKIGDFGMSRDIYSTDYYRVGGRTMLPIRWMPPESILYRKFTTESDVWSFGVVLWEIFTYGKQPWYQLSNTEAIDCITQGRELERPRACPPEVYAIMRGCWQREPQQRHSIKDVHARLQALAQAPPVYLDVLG

| Compound | IC50 [1] [µM] | IC50 [2] [µM] |
| --- | --- | --- |
| COc1ccc(Nc2ccc(C(=O)c3c[nH]c4ncnc(N[C@@H](C)c5ccc(F)cc5)c34)c(F)n2)cn1 [Compound P-4072, [2-fluoro-6-[(6-methoxy-3-pyridyl)amino]-3-pyridyl]-[4-[[(1S)-1-(4-fluorophenyl)ethyl]amino]-7H-pyrrolo[2,3-d]pyrimidin-5-yl]methanone] | < 0.1 | > 1 |
| COc1ccc(Nc2ccc(C(=O)c3c[nH]c4ncnc(NCC5CCCO5)c34)c(F)n2)cn1 (stereo not drawn) [Compound P-4073, [2-fluoro-6-[(6-methoxy-3-pyridyl)amino]-3-pyridyl]-[4-(tetrahydrofuran-2-ylmethylamino)-7H-pyrrolo[2,3-d]pyrimidin-5-yl]methanone] | < 0.01 | < 1 |
| CCN1CCC(Nc2ncnc3[nH]cc(C(=O)c4ccc(Nc5ccc(OC)nc5)nc4F)c23)CC1 [Compound P-4074, [4-[(1-ethyl-4-piperidyl)amino]-7H-pyrrolo[2,3-d]pyrimidin-5-yl]-[2-fluoro-6-[(6-methoxy-3-pyridyl)amino]-3-pyridyl]methanone] | < 0.01 | < 1 |
| COc1ccc(Nc2ccc(C(=O)c3c[nH]c4ncnc(NC5CCCC5)c34)c(F)n2)cn1 [Compound P-4075, [4-(cyclopentylamino)-7H-pyrrolo[2,3-d]pyrimidin-5-yl]-[2-fluoro-6-[(6-methoxy-3-pyridyl)amino]-3-pyridyl]methanone] | < 0.01 | < 1 |
| COc1ccc(Nc2ccc(C(=O)c3c[nH]c4ncnc(NC5CCC5)c34)c(F)n2)cn1 [Compound P-4076, [4-(cyclobutylamino)-7H-pyrrolo[2,3-d]pyrimidin-5-yl]-[2-fluoro-6-[(6-methoxy-3-pyridyl)amino]-3-pyridyl]methanone] | < 0.01 | < 0.1 |
| CCC(CC)Nc1ncnc2[nH]cc(C(=O)c3ccc(Nc4ccc(OC)nc4)nc3F)c12 [Compound P-4077, [4-(1-ethylpropylamino)-7H-pyrrolo[2,3-d]pyrimidin-5-yl]-[2-fluoro-6-[(6-methoxy-3-pyridyl)amino]-3-pyridyl]methanone] | < 0.01 | < 1 |
| CCC(C)Nc1ncnc2[nH]cc(C(=O)c3ccc(Nc4ccc(OC)nc4)nc3F)c12 (stereo not drawn) [Compound P-4078, [2-fluoro-6-[(6-methoxy-3-pyridyl)amino]-3-pyridyl]-[4-(sec-butylamino)-7H-pyrrolo[2,3-d]pyrimidin-5-yl]methanone] | < 0.01 | < 1 |
| COCCCNc1ncnc2[nH]cc(C(=O)c3ccc(Nc4ccc(OC)nc4)nc3F)c12 [Compound P-4079, [2-fluoro-6-[(6-methoxy-3-pyridyl)amino]-3-pyridyl]-[4-(3-methoxypropylamino)-7H-pyrrolo[2,3-d]pyrimidin-5-yl]methanone] | < 0.01 | < 0.1 |
| CCCCNc1ncnc2[nH]cc(C(=O)c3ccc(Nc4ccc(OC)nc4)nc3F)c12 [Compound P-4080, [4-(butylamino)-7H-pyrrolo[2,3-d]pyrimidin-5-yl]-[2-fluoro-6-[(6-methoxy-3-pyridyl)amino]-3-pyridyl]methanone] | < 0.01 | < 1 |
| CCNc1ncnc2[nH]cc(C(=O)c3ccc(Nc4ccc(OC)nc4)nc3F)c12 [Compound P-4081, [4-(ethylamino)-7H-pyrrolo[2,3-d]pyrimidin-5-yl]-[2-fluoro-6-[(6-methoxy-3-pyridyl)amino]-3-pyridyl]methanone] | < 0.01 | < 0.1 |
| COc1ccc(Nc2ccc(C(=O)c3c[nH]c4ncnc(NC5CCCCC5)c34)c(F)n2)cn1 [Compound P-4082, [4-(cyclohexylamino)-7H-pyrrolo[2,3-d]pyrimidin-5-yl]-[2-fluoro-6-[(6-methoxy-3-pyridyl)amino]-3-pyridyl]methanone] | < 0.01 | < 1 |
| CNc1ncnc2[nH]cc(C(=O)c3ccc(Nc4ccc(OC)nc4)nc3F)c12 [Compound P-4083, [2-fluoro-6-[(6-methoxy-3-pyridyl)amino]-3-pyridyl]-[4-(methylamino)-7H-pyrrolo[2,3-d]pyrimidin-5-yl]methanone] | < 0.01 | < 0.1 |
| COc1ccc(Nc2ccc(C(=O)c3c[nH]c4ncnc(NCC(F)(F)F)c34)c(F)n2)cn1 [Compound P-4084, [2-fluoro-6-[(6-methoxy-3-pyridyl)amino]-3-pyridyl]-[4-(2,2,2-trifluoroethylamino)-7H-pyrrolo[2,3-d]pyrimidin-5-yl]methanone] | < 0.01 | < 0.1 |
| CNc1ncnc2[nH]cc(C(=O)c3ccc(Nc4ccc(OC)nc4)nc3OC)c12 [Compound P-4085, [2-methoxy-6-[(6-methoxy-3-pyridyl)amino]-3-pyridyl]-[4-(methylamino)-7H-pyrrolo[2,3-d]pyrimidin-5-yl]methanone] | < 0.01 | < 1 |
| CCc1ccc(Nc2ccc(C(=O)c3c[nH]c4ncnc(Nc5ccc(C)nc5)c34)c(F)n2)cn1 [Compound P-4086, [6-[(6-ethyl-3-pyridyl)amino]-2-fluoro-3-pyridyl]-[4-[(6-methyl-3-pyridyl)amino]-7H-pyrrolo[2,3-d]pyrimidin-5-yl]methanone] | < 0.1 | < 1 |
| O=C(c1ccc(NC2CCC(F)(F)CC2)nc1)c1c[nH]c2ncnc(NCC(F)(F)F)c12 [Compound P-4087, [6-[(4,4-difluorocyclohexyl)amino]-3-pyridyl]-[4-(2,2,2-trifluoroethylamino)-7H-pyrrolo[2,3-d]pyrimidin-5-yl]methanone] | < 0.01 | < 0.1 |
| O=C(c1ccc(NC2CCC(F)(F)CC2)nc1)c1c[nH]c2ncnc(NC3CC3)c12 [Compound P-4088, [4-(cyclopropylamino)-7H-pyrrolo[2,3-d]pyrimidin-5-yl]-[6-[(4,4-difluorocyclohexyl)amino]-3-pyridyl]methanone] | < 0.01 | < 1 |
| CNc1ncnc2[nH]cc(C(=O)c3ccc(NC4CCC(F)(F)CC4)nc3)c12 [Compound P-4089, [6-[(4,4-difluorocyclohexyl)amino]-3-pyridyl]-[4-(methylamino)-7H-pyrrolo[2,3-d]pyrimidin-5-yl]methanone] | < 0.1 | < 1 |
| O=C(c1ccc(Nc2ccc(C3CC3)nc2)nc1F)c1c[nH]c2ncnc(NCC(F)(F)F)c12 [Compound P-4090, [6-[(6-cyclopropyl-3-pyridyl)amino]-2-fluoro-3-pyridyl]-[4-(2,2,2-trifluoroethylamino)-7H-pyrrolo[2,3-d]pyrimidin-5-yl]methanone] | < 0.1 | < 1 |
| O=C(c1ccc(Nc2ccc(C(F)(F)F)nc2)nc1F)c1c[nH]c2ncnc(NC3CC3)c12 [Compound P-4091, [4-(cyclopropylamino)-7H-pyrrolo[2,3-d]pyrimidin-5-yl]-[2-fluoro-6-[[6-(trifluoromethyl)-3-pyridyl]amino]-3-pyridyl]methanone] | < 0.01 | < 0.1 |
| CNc1ncnc2[nH]cc(C(=O)c3ccc(Nc4ccc(C(F)(F)F)nc4)nc3F)c12 [Compound P-4092, [2-fluoro-6-[[6-(trifluoromethyl)-3-pyridyl]amino]-3-pyridyl]-[4-(methylamino)-7H-pyrrolo[2,3-d]pyrimidin-5-yl]methanone] | < 0.01 | < 0.1 |
